According to patent US10994015B2, “EGFR proteolysis targeting chimeric molecules and associated methods of use” (Arvinas Operations, Inc., priority 2016, dated 2021):

Experiments:
EGFR L858R/T790M = EGFR L858R/T790M (Homo sapiens (Human), UniProt P00533, L858R/T790M); assay: TR-FRET assay for ERBB kinases; type: biochemical; conditions: geometric mean if measured more than once
Protocol: (§1) TR-FRET Assay for ERBB Kinases
(§2) All compounds and PROTACs were serially diluted in three-fold increments using 100% DMSO, followed by an intermediate 10-fold dilution using Buffer A (50 mM HEPES, pH 7.5, 50 mM NaCl, 10 mM MgCl2, 1 mM DTT, and 0.1% Pluronic F-68). […] Next, 10 uL of protein kinase in Buffer A was added to each well of the assay plate and pre-incubated with compound for 10 minutes. Kinase reactions were then initiated by addition of 5 uL substrate mix containing 3 mM ATP and 30 uM fluorescein-labeled Poly-GluTyr (Thermo Fisher, #PV3610) in Buffer A and allowed to proceed for 10 minutes at room temperature. Reactions were quenched by addition of a 5 uL mixture containing 5 nM LanthaScreen® Tb-pY20 Antibody (Thermo Fisher, #PV3552) and 40 mM EDTA in Buffer A. Assay plates were then read using a Synergy2 (Biotek Instruments, Winooski, Vt.) via excitation thru a 340/20 nm bandpass filter and emission collected thru 490/10 nm (donor) and 520/25 nm (acceptor) bandpass filters.

EGFR L858R/T790M/C797S = EGFR L858R/T790M/C797S (Homo sapiens (Human), UniProt P00533, C797S/L858R/T790M); assay: TR-FRET assay for ERBB kinases; type: biochemical; conditions: geometric mean if measured more than once
Chain of EGFR L858R/T790M/C797S (P00533 25-1210 T790M/C797S/L858R): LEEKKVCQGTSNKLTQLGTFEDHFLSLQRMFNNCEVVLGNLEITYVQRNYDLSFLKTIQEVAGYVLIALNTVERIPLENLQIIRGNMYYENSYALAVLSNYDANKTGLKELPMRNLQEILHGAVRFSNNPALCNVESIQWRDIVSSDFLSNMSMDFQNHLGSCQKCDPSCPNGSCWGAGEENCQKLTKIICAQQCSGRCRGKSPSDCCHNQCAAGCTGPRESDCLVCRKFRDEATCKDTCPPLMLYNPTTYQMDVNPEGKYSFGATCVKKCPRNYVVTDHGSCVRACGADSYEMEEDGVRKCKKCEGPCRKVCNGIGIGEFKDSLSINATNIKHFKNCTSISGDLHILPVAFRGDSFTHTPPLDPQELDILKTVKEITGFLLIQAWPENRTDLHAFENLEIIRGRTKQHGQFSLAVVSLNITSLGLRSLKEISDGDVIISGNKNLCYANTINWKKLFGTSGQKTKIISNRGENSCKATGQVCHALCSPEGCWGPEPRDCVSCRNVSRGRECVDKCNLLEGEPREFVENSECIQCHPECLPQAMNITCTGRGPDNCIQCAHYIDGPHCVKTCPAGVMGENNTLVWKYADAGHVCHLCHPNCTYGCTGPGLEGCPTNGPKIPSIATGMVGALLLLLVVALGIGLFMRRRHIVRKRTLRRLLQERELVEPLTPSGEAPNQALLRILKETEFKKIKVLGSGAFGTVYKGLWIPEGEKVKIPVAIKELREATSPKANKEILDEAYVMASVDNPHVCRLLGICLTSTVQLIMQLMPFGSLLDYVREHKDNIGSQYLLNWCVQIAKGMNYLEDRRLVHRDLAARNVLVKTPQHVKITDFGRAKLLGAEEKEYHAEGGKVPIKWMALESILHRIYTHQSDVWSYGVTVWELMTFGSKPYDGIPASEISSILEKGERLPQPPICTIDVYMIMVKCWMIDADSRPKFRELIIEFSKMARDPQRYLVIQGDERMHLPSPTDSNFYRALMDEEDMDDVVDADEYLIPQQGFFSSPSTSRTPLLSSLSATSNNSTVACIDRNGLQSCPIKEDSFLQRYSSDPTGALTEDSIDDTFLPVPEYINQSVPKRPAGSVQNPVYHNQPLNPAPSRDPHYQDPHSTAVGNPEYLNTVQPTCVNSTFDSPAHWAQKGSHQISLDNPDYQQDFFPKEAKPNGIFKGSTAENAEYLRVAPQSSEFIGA
Protocol: as §1, §2

EGFR WT = EGFR WT (Homo sapiens (Human), UniProt P00533); assay: TR-FRET assay for ERBB kinases; type: biochemical; conditions: geometric mean if measured more than once
Protocol: as §1, §2

EGFR Exon20NPG = EGFR Exon20NPG (Homo sapiens (Human), UniProt P00533, INS770NPG); assay: TR-FRET assay for ERBB kinases; type: biochemical; conditions: geometric mean if measured more than once
Chain of EGFR Exon20NPG (P00533 other isoform, or with tags, fused parts or gaps del 1-694/ins NPG behind 770 limits assumed): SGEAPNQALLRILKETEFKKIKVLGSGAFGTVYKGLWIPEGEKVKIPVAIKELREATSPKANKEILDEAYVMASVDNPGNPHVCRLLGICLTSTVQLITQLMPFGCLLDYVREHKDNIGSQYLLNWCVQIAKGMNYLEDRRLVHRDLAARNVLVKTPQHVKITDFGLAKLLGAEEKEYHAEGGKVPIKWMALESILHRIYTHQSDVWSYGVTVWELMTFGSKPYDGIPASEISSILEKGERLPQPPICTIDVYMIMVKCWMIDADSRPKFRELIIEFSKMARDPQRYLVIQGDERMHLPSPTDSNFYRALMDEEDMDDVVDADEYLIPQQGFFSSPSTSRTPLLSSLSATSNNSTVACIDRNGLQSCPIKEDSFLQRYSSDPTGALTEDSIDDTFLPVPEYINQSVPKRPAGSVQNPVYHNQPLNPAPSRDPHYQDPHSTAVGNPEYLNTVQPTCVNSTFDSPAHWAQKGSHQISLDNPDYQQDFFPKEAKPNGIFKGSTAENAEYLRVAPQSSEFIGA
Protocol: as §1
All compounds and PROTACs were serially diluted in three-fold increments using 100% DMSO, followed by an intermediate 10-fold dilution using Buffer A (50 mM HEPES, pH 7.5, 50 mM NaCl, 10 mM MgCl2, 1 mM DTT, and 0.1% Pluronic F-68). Two microliters of serially diluted compound or PROTAC were then transferred to black 384-well Proxiplates (PerkinElmer, #6008260) using an Integra Viaflo96. Next, 10 uL of protein kinase in Buffer A was added to each well of the assay plate and pre-incubated with compound for 10 minutes. Kinase reactions were then initiated by addition of 5 uL substrate mix containing 3 mM ATP and 30 uM fluorescein-labeled Poly-GluTyr (Thermo Fisher, #PV3610) in Buffer A and allowed to proceed for 10 minutes at room temperature. Reactions were quenched by addition of a 5 uL mixture containing 5 nM LanthaScreen® Tb-pY20 Antibody (Thermo Fisher, #PV3552) and 40 mM EDTA in Buffer A. Assay plates were then read using a Synergy2 (Biotek Instruments, Winooski, Vt.) via excitation thru a 340/20 nm bandpass filter and emission collected thru 490/10 nm (donor) and 520/25 nm (acceptor) bandpass filters.

[1] = biological target: EGFR L858R/T790M double mutant (H1975) (Homo sapiens (Human), UniProt P00533, L858R/T790M); assay: EGFR protein degradation assay (Western blot); type: cell-based; conditions: 72 hours, 300 nM to 10 nM
Chain of EGFR L858R/T790M double mutant (H1975) (P00533 25-1210 T790M/L858R): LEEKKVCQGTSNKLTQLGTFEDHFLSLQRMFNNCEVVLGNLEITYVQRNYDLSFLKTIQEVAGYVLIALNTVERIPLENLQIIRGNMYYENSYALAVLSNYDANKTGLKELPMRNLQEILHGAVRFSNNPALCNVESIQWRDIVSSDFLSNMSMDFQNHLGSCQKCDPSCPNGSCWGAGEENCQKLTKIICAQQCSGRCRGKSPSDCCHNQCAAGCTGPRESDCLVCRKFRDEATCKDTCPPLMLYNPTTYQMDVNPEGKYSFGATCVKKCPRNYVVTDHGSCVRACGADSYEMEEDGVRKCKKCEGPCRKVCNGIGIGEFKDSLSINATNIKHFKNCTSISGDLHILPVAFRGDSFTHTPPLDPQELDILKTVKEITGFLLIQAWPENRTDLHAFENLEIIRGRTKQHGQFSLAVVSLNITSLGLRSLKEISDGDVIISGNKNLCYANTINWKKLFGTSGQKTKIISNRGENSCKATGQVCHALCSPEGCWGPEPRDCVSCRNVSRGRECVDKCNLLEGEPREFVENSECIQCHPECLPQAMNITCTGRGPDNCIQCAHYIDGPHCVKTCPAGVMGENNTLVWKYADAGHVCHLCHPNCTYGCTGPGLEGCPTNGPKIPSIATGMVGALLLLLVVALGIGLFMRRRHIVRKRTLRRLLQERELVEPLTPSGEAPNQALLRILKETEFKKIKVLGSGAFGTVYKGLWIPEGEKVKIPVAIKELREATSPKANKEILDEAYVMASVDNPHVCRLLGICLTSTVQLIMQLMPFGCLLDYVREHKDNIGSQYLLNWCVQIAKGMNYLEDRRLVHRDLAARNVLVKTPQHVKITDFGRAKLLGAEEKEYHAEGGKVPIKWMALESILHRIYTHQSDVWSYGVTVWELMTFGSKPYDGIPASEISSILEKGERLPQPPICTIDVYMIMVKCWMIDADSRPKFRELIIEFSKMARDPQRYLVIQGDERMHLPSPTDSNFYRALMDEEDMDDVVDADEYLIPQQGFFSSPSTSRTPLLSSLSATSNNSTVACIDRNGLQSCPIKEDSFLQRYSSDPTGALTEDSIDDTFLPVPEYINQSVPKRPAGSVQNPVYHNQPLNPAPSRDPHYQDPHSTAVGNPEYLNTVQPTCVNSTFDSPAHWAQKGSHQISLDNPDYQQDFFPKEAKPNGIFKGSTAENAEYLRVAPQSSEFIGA
Protocol: EGFR Protein Degradation assay
Cells expressing the appropriate form of EGFR were seeded in 6-well plates (300,000 cells per well) and allowed to adhere to the plate overnight. […] To harvest cells, media was removed and cells were washed once with ice-cold phosphate-buffered saline (PBS) prior to the addition of 400 μl lysis buffer (Cell Signaling Technology) supplemented with a protease inhibitor cocktail (Thermo Scientific). Cells were scraped from the plate and the cell lysate transferred to an Eppendorf tube and then clarified by a single spin at 10 000 rpm for 10 minutes. The protein concentration of each lysate was determined (BCA kit, Thermo Scientific) prior to the addition of loading buffer (Invitrogen) and reducing agent (Invitrogen). 10 μg protein of each lysate was loaded on an SDS/PAGE gel and run at 165V for 2 hours. Following transfer to a PVDF membrane (iBlot2, Thermo Fisher Scientific), the membrane was blocked in Tris-buffered saline containing 0.1% Tween-20 (TBS-T) and supplemented with 5% powdered milk for 1 hour. Membranes were then probed with EGFR and tubulin (loaded control) primary antibodies in TBS-T containing 3% bovine serum albumin (BSA) overnight at 4° C. Membranes were washed thrice with TBS-T before incubation with secondary antibody in TBS-T containing 3% bovine serum albumin (BSA) and incubated for 1 hour at room temperature. Following 3 further washes with TBS, membrane proteins of interest were detected by enzyme-linked chemiluminescence (ECL) using a Chemidoc (Bio-Rad).

Chain of EGFR L858R/T790M (P00533 25-1210 T790M/L858R): as above

Row | SMILES | IC50 (EGFR L858R/T790M) | IC50 (EGFR L858R/T790M/C797S) | IC50 (EGFR WT) | IC50 (EGFR Exon20NPG) | EGFR protein remaining, EGFR L858R/T790M double mutant [1]
1 | Cc1ncsc1-c1ccc([C@H](C)NC(=O)[C@H]2C[C@H](O)CN2C(=O)[C@@H](NC(=O)COCCOCCOCCOCCOc2ccc(-c3nccc(Nc4cc5c(cn4)nc(C)n5C(C)C)n3)cc2)C(C)(C)C)cc1 [compound 279] | 29 µM | > 30 µM | 16 µM | > 30 µM | –
2 | O=C1CCC(N2C(=O)c3ccc(N4CCN(CCCC#Cc5cccc6c5C(=O)N(C(C(=O)Nc5nccs5)c5cc(F)ccc5O)C6)CC4)cc3C2=O)C(=O)N1 (centres unmarked) [compound 96] | 10 µM | 4.6 µM | 1.9 µM | 2.5 µM | C (>80% EGFR protein remaining after 72 hours of incubation with the test compound at a concentration of 300 nM)
3 | Cc1ncsc1-c1ccc(CNC(=O)[C@@H]2C[C@@H](O)CN2C(=O)C(C(C)C)N2Cc3ccccc3C2=O)c(OCCCCOc2ccc(-c3nccc(Nc4cc5c(cn4)nc(C)n5C(C)C)n3)cc2)c1 (some centres unmarked) [compound 277] | > 30 µM | > 30 µM | > 30 µM | > 30 µM | C (>80% EGFR protein remaining after 72 hours of incubation with the test compound at a concentration of 300 nM)
4 | Cc1ncsc1-c1ccc([C@H](C)NC(=O)[C@@H]2C[C@@H](O)CN2C(=O)[C@@H](NC(=O)COCCCOCCCN2CCC3(CC2)CCN(c2nccc(Nc4cc5c(cn4)nc(C)n5C(C)C)n2)CC3)C(C)(C)C)cc1 [Example 282, (2S,4R)-4-hydroxy-1-((S)-2-(2-(3-(3-(9-(4-((1-isopropyl-2-methyl-1H-imidazo[4,5-c]pyridin-6-yl)amino)pyrimidin-2-yl)-3,9-diazaspiro[5.5]undecan-3-yl)propoxy)propoxy)acetamido)-3,3-dimethylbutanoyl)-N—((S)-1-(4-(4-methylthiazol-5-yl)phenyl)ethyl)pyrrolidine-2-carboxamide] | > 30 µM | 23 µM | 12 µM | > 30 µM | –
5 | Cc1ncsc1-c1ccc([C@H](C)NC(=O)[C@H]2C[C@H](O)CN2C(=O)[C@@H](NC(=O)COCCCOCCCN2CCOC3(CCN(c4nccc(Nc5cc6c(cn5)nc(C)n6C(C)C)n4)CC3)C2)C(C)(C)C)cc1 [compound 285] | 35 µM | 17 µM | 26 µM | – | –
6 | COC1CCN(c2nccc(Nc3cc4c(cn3)nc(COCCN3CCN(c5ccc6c(c5)C(=O)N(C5CCC(=O)NC5=O)C6=O)CC3)n4C(C)(C)C)n2)CC1 (centres unmarked) [compound 287] | 0.074 µM | 0.016 µM | 6.7 µM | – | –
7 | O=C1CCC(N2C(=O)c3ccc(OCCN4CCN(CCCC#Cc5cccc6c5C(=O)N(C(C(=O)Nc5nccs5)c5cc(F)ccc5O)C6)CC4)cc3C2=O)C(=O)N1 (centres unmarked) [compound 94] | 6 µM | 1.8 µM | 2.1 µM | 1.5 µM | C (>80% EGFR protein remaining after 72 hours of incubation with the test compound at a concentration of 300 nM)
8 | COC1CCN(c2nccc(Nc3cc4c(cn3)nc(COCCCN3CCN(CCCOCC(=O)N[C@H](C(=O)N5C[C@H](O)C[C@H]5C(=O)N[C@@H](C)c5ccc(-c6scnc6C)cc5)C(C)(C)C)CC3)n4C(C)C)n2)CC1 [Example 85, (2S,4R)-4-hydroxy-1-((S)-2-(2-(3-(4-(3-((1-isopropyl-6-((2-(4-methoxypiperidin-1-yl)pyrimidin-4-yl)amino)-1H-imidazo[4,5-c]pyridin-2-yl)methoxy)propyl)piperazin-1-yl)propoxy)acetamido)-3,3-dimethylbutanoyl)-N—((S)-1-(4-(4-methylthiazol-5-yl)phenyl)ethyl)pyrrolidine-2-carboxamide] | 16 µM | 3.9 µM | > 30 µM | > 30 µM | C (>80% EGFR protein remaining after 72 hours of incubation with the test compound at a concentration of 300 nM)
9 | COC1CCN(c2nccc(Nc3cc4[nH]c(COCCN5CCN(c6ccc7c(c6)C(=O)N(C6CCC(=O)NC6=O)C7=O)CC5)nc4cn3)n2)CC1 (centres unmarked) [compound 288] | 6.9 µM | 2 µM | 5.9 µM | – | –
10 | Cc1ncsc1-c1ccc([C@H](C)NC(=O)[C@H]2C[C@H](O)CN2C(=O)[C@@H](NC(=O)COCCOCCOc2ccc(-c3nccc(Nc4cc5c(cn4)nc(C)n5C(C)C)n3)cc2)C(C)(C)C)cc1 [Example 276, (2R,4S)-4-hydroxy-1-((S)-2-(2-(2-(2-(4-(4-((1-isopropyl-2-methyl-1H-imidazo[4,5-c]pyridin-6-yl)amino)pyrimidin-2-yl)phenoxy)ethoxy)ethoxy)acetamido)-3,3-dimethylbutanoyl)-N—((S)-1-(4-(4-methylthiazol-5-yl)phenyl)ethyl)pyrrolidine-2-carboxamide] | 23 µM | 29 µM | 20 µM | > 30 µM | C (>80% EGFR protein remaining after 72 hours of incubation with the test compound at a concentration of 300 nM)
11 | O=C1CCC(N2C(=O)c3ccc(N4CCN(CC5CCN(CC#Cc6cccc7c6C(=O)N(C(C(=O)Nc6nccs6)c6cc(F)ccc6O)C7)CC5)CC4)cc3C2=O)C(=O)N1 (centres unmarked) [compound 293] | 4.2 µM | 0.64 µM | 1.7 µM | – | –
12 | Cc1ncsc1-c1ccc(CNC(=O)[C@@H]2C[C@@H](O)CN2C(=O)C(C(C)C)N2Cc3ccccc3C2=O)c(OCCOCCOCCOCCOc2ccc(-c3nccc(Nc4cc5c(cn4)nc(C)n5C(C)C)n3)cc2)c1 (some centres unmarked) [compound 281] | > 30 µM | 15 µM | 12 µM | > 30 µM | –
13 | Cc1ncsc1-c1ccc([C@H](C)NC(=O)[C@H]2C[C@H](O)CN2C(=O)[C@@H](NC(=O)COCCOCCOCCOc2ccc(-c3nccc(Nc4cc5c(cn4)nc(C)n5C(C)C)n3)cc2)C(C)(C)C)cc1 [compound 278] | > 30 µM | > 30 µM | 30 µM | > 30 µM | –
14 | COC1CCN(c2nccc(Nc3cc4c(cn3)nc(-c3ccc(CN5CCN(CCOc6ccc7c(c6)C(=O)N(C6CCC(=O)NC6=O)C7=O)CC5)cc3)n4C(C)C)n2)CC1 (centres unmarked) [Example 286, 2-(2,6-dioxopiperidin-3-yl)-5-(2-(4-(4-(1-isopropyl-6-((2-(4-methoxypiperidin-1-yl)pyrimidin-4-yl)amino)-1H-imidazo[4,5-c]pyridin-2-yl)benzyl)piperazin-1-yl)ethoxy)isoindoline-1,3-dione] | 0.48 µM | 0.17 µM | 7.3 µM | – | –
15 | COC1(CCN2CCN(CCCOCCCOCC(=O)N[C@H](C(=O)N3C[C@H](O)C[C@H]3C(=O)N[C@@H](C)c3ccc(-c4scnc4C)cc3)C(C)(C)C)CC2)CCN(c2nccc(Nc3cc4c(cn3)nc(C)n4C(C)C)n2)CC1 [Example 292, (2S,4R)-4-hydroxy-1-((S)-2-(2-(3-(3-(4-(2-(1-(4-((1-isopropyl-2-methyl-1H-imidazo[4,5-c]pyridin-6-yl)amino)pyrimidin-2-yl)-4-methoxypiperidin-4-yl)ethyl)piperazin-1-yl)propoxy)propoxy)acetamido)-3,3-dimethylbutanoyl)-N—((S)-1-(4-(4-methylthiazol-5-yl)phenyl)ethyl)pyrrolidine-2-carboxamide] | 19 µM | 11 µM | 39 µM | – | –
